{
  "source": "patent US9339476B2",
  "about": "“Implantable meshes for controlling the movement of fluids” (Arch Biosurgery, Inc., priority 2013, dated 2016)",
  "key": {"[1]": {"tested_on": "4 mm diameter biopsy punch lesion of the liver's right lobe with brisk bleeding", "test": "Rat liver biopsy punch model, hemostasis", "type": "in vivo, Sprague Dawley rats", "protocol": "(§1) A self-assembling peptide having the sequence RADARADARADARADA (RADA4; SEQ. ID. NO: 1) acetate salt was reconstituted in sterile water to 3%. The material was stored at […] in a cooler with cold pack over it until brought to the study facility. Lyo cakes of 3 vials were crushed using a spatula and then combined in 1 vial. The combined content was reconstituted with 1 mL volume of sterile water for injection. The lyophilized formulation went in solution easily in 1-2 minutes and was vortexed for 30 seconds before use.\n(§2) Four female Sprague Dawley rats each weighing 300-320 g were anesthetized with a mixture of xylaxine/ketamine. When a suitable plane of anesthesia was reached, a ventral midline incision was made in the abdomen allowing for visualization and manipulation of the liver's right lobe. Further manipulation to expose the portal vein was performed to allow for withdrawal of 1 mL of blood for measurement of blood activated clotting time (ACT).\nA wooden spatula was then placed behind the right lobe of the liver and a 4 mm diameter biopsy punch was used to remove a full thickness 4 mm diameter section of the liver resulting in a lesion with brisk bleeding.\nImmediately, 0.5 mL of a 3% aqueous solution of pre-formulated RADA4 peptide reconstituted in sterile water was applied to the biopsy site using a 22½ gauge needle."}, "[2]": {"tested_on": "second 4 mm diameter biopsy punch lesion in the right lobe of the liver", "test": "Rat liver biopsy punch model, hemostasis in the presence of anticoagulant (heparin)", "type": "in vivo, Sprague Dawley rats", "protocol": "(§3) To determine whether hemostasis could be achieved in the presence of anticoagulant, heparin was then administered to the animal at a dose of 500 IU per kg body weight injected directly into the portal vein. Two minutes after heparin injection, a second 4 mm diameter biopsy punch lesion was made adjacent to the first lesion in the right lobe of the liver and 0.5 ml of a 3% aqueous RADA4 peptide solution was again added to the lesion."}, "[3]": {"test": "Reconstitution of lyophilized formulation in sterile water for injection", "type": "physicochemical", "details": "lyo cakes of 3 vials combined, reconstituted with 1 mL sterile water for injection", "protocol": "as §1"}, "[4]": {"tested_on": "blood activated clotting time (ACT)", "test": "Blood activated clotting time (ACT)", "type": "in vivo, Sprague Dawley rats", "details": "8 minutes following heparin injection (500 IU/kg, portal vein); baseline approximately 110 seconds", "protocol": "as §2, §3"}},
  "data": [
    {"substance": "RADARADARADARADA [RADA4]", "values": [
      {"measurement": "time until bleeding stopped completely", "setting": "[1]; 0.5 mL of 3% aqueous solution applied to 4 mm liver biopsy site, no anticoagulant", "value": "≤ 30", "unit": "s"},
      {"measurement": "producing hemostasis (overall outcome)", "setting": "[1]; 3% aqueous solution, absence of clinically significant anticoagulation", "value": "successful"},
      {"measurement": "stability of hemostasis at later assessment", "setting": "[1]; 10 minutes following application, no anticoagulant", "value": "stable without further bleeding"},
      {"measurement": "time until bleeding stopped", "setting": "[2]; 0.5 ml of 3% aqueous solution, lesion made two minutes after heparin 500 IU per kg into the portal vein", "value": "≤ 30", "unit": "s"},
      {"measurement": "producing hemostasis (overall outcome)", "setting": "[2]; 3% aqueous solution, presence of clinically significant anticoagulation", "value": "successful"},
      {"measurement": "stability of hemostasis at later assessment", "setting": "[2]; at 10 minutes, after heparin 500 IU per kg", "value": "stable"},
      {"measurement": "time for lyophilized formulation to go in solution", "setting": "[3]", "value": "1 to 2", "unit": "min"}
    ]},
    {"substance": "heparin", "values": [
      {"measurement": "ACT measurement", "setting": "[4]", "value": "greater than 1,300 seconds"}
    ]}
  ]
}
